Measurements as given in US4297096A, “Alkyl, alkenyl, and aryl substituted triazene compounds, their salts and production thereof” (Fujisawa Pharmaceutical Co. Ltd., priority 1980, dated 1981).

Assay: Solubility
Format: physicochemical
[1] = Benzene, hexane and ether, crystals of Example 1
[2] = Benzene, hexane and ether, crystals of Example 2 (pure)
[3] = Chloroform, ethyl acetate, methanol and acetone, crystals of Example 1
[4] = Chloroform, ethyl acetate, methanol and acetone, crystals of Example 2 (pure)
[5] = water, crystals of Example 2 (pure)

Compound | Solubility [1] | Solubility [2] | Solubility [3] | Solubility [4] | Solubility (water, crystals of Example 1) | Solubility [5]
CCCC/C=C/C=C/C=C/C=NN=NO [FR-900184] | Sparingly soluble | Sparingly soluble | Soluble | Soluble | Insoluble | Insoluble
CCC/C=C/C/C=C/C=C/C=NN=NO [FR-900190] | Sparingly soluble | Sparingly soluble | Soluble | Soluble | Insoluble | Insoluble
